# Measurements: patent US9364537B2, “Transition metal porphyrin complexes and methods of treatment using same” (UNIVERSITY OF DAYTON, priority 2014, dated 2016)
# Assays:
# [1] = test system: Pseudomonas aeruginosa planktonic cells; assay: killing of planktonic cells in the absence of light, viable plate counts; assay type: cell-based; settings: 37° C.
# Protocol: ZnPFPTMP was added to cell suspensions at the concentrations shown in FIG. 5 (0 to 100 μM) and incubated at 37° C. in the absence of light. […]
# [2] = test system: circular plasmid DNA (pUC18); assay: photocleavage of plasmid DNA in the absence of oxygen, gel electrophoresis; assay type: biochemical; settings: 10:1 base pair to complex ratio, wavelengths above 420 nm
# Protocol: Referring now to FIG. 4, photocleavage studies based on a 10 to 1 base pairs to ZnPFPTMP was irradiated with a 420 nm filter and samples were taken at 10 minute intervals. In FIG. 3, gel electrophoresis of circular plasmid DNA (pUC18) in the absence (lane 1) and presence (lanes 2-10) of ZnPFPTMP at a 10:1 base pair to complex ratio is shown. Samples were irradiated with a 300 W mercury arc lamp equipped with a long pass filter, cutting off wavelengths below 420 nm in the absence of oxygen, and were taken at 10 minute intervals. Accordingly, ZnPFPTMP can be effective under hypoxic conditions.
# calf thymus CT-DNA = assay: DNA titration by absorption spectra; assay type: binding; settings: pH 7.2 buffer, ionic strength 0.1 M
# Protocol: A sample of ZnPFPTMP from Part C was tested by various methods and techniques to determine how this compound may be utilized. In one test ZnPFPTMP was titrated into a DNA sample to determine ZnPFPTMP's affinity for binding to DNA. This test was conducted by measuring the absorption spectra of pH 7.2 buffer solutions (ionic strength=0.1 M) of ZnPFPTMP in the presence of increasing amounts of calf thymus CT-DNA.
# Staphylococcus aureus = assay: killing of bacteria in the absence of light, plated to determine viability; assay type: cell-based
# Description: Additionally, the ability of ZnPFPTMP to affect killing of bacteria in the absence of light was further tested against the Gram-positive pathogenic bacterium Staphylococcus aureus. This bacterium was chose to evidence the ability of the porphyrins of general formula (I) to treat/kill methicillin-resistant Staphylococcus aureus (MRSA) without exposing the scientists to MRSA directly. Moreover, it is believed that the mechanism used by the porphyrins of general formula (I) is unlikely to involve the methicillin resistance mechanism. S. aureus cells grown in LB medium were washed and re-suspended on 0.2% peptone and exposed to either 1.5 μM or 3.0 μM Zeke in sterile water. Cell suspensions were sampled every 30 minutes for 3 hours and plated to determine viability. […] At 1.5 μM Zeke's complete elimination of viable cells of S. aureus took only two hours.
# [3] = test system: circular plasmid DNA (pUC18); assay: photocleavage of plasmid DNA in the presence of oxygen, gel electrophoresis; assay type: biochemical; settings: 50:1 base pair to complex ratio
# Protocol: To appreciate the significance of the increased absorption of ZnPFPTMP in the PDT window, comparative photocleavage studies of plasmid DNA under normal conditions (i.e., in the presence of oxygen) were conducted for ZnPFPTMP and its free-base porphyrin. […] In FIG. 3, gel electrophoresis of circular plasmid DNA (pUC18) in the absence (lane 1) and presence (lanes 2-10) of unmetallated porphyrin (A) and ZnPFPTMP (B) at a 50:1 base pair to complex ratio are shown. Samples were irradiated with a 300 W mercury arc lamp equipped with a long pass filter, cutting off wavelengths below 550 nm, and were taken at 2 minute intervals.
# ZnPFPTMP is very reactive at such low energy wavelengths of light.
# [4] = test system: Pseudomonas aeruginosa biofilm associated cells; assay: effect on biofilms in the dark; assay type: cell-based
substance,measurement,setting,value
"meso-5,10,15-tris(N-methyl-4-pyridyl)-20-(pentafluorophenyl)porphyrinatozinc(II), tris-p-toluene sulfonate [ZnPFPTMP]",killing at two hours,[1]; 2 hours,substantial killing
same,MLC (minimum lethal concentration),"[1]; 7 hours, no survivors",25 µM
same,photonicking of DNA in the absence of oxygen,[2],effective at photonicking DNA
same,binding constants to DNA,calf thymus CT-DNA,greater than 10^6
same,time to complete elimination of viable cells,Staphylococcus aureus; 1.5 μM,two
same,log reduction in viable cells,"Staphylococcus aureus; 3.0 μM, after 30 min",5.5 log
same,viable cells remaining,"Staphylococcus aureus; 3.0 μM, after 60 min",no viable cells remained
same,band intensity compared to free-base porphyrin,"[3]; after 2 minutes versus free-base porphyrin after 20 minutes, above 550 nm",more intense bands
same,photonicking of plasmid DNA,"[3]; after two minutes, wavelengths above 550 nm, oxygen present",effective compete photonicking
same,biofilm formation,[4]; added to cell suspensions incubated in the dark,Biofilms were prevented
same,log reduction in preformed biofilms,[4]; preformed biofilms exposed in the dark (data not shown),2.7 log
